The values below come from patent US9999224B2, “Antimicrobial reverse thermal gel and methods of forming and using same” (The Regents of the University of Colorado, a body corporate, priority 2014, dated 2018).

In this data set the test system is cells. Put plainly: MTT assay, cytotoxicity / biocompatibility (FIG. 12). The format is cell-based. As to conditions: cells plated on dried polymer layer; Q-PEI-PNIPAAm 20% conjugation at 1, 3 and 5%; negative control growth medium, positive control 5% DMSO. As for the experimental part: FIG. 12 illustrates Cytotoxicity Tests of Q-PEI-PNIPAAm. An MTT assay was conducted to assess the biocompatibility of Q-PEI-PNIPAAm. Several methods were used to conduct this test. Previously, the Q-PEI-PNIPAAm polymer had been placed on top of the cells mixed with the media; however, due to the gelling nature of the sample the polymer was not in contact with the cells for long period of time. Due to this, the methodology was modified and the cells were plated on top of the polymer and then trypsinized and re-plated before conducting the test; however, trypsinizing, centrifuging and re-plating cells can lead to higher variability in number of cells per well and since the cells were not left to attached on the plates for long enough the results may be inaccurate. Finally the polymer was dissolved in alcohol, left to evaporate and then the cells were plated on top. Since the MTT measures absorbance, blanks were required for each sample. However, the layer of polymer on the plate needed to be very thin so the polymer concentration tested was 1, 3 and 5%. […] Chlorhexidine 2%, a common skin preparation solution was tested as a control.
A statistically significant difference was observed between the experimental samples, negative and positive control (cells cultured with 5% DMSO) (***indicates […], and **indicates p<0.05.).
A general note: Tetrazolium assays rely on reduction of a dye to a coloured formazan, in cell work by metabolically active cells.

On to `[H]/N=C(\N/C(=N/[H])NCCCCCCNC(=N)NC(=N)Nc1ccc(Cl)cc1)Nc1ccc(Cl)cc1` [chlorhexidine], for which the “Metabolic activity of cells (MTT absorbance) versus controls” value was “the same difference was obtained”.
